Results reported in patent US8067456B2 (AEterna Zentaris GmbH, priority 2004, dated 2011).
Values after ≈ are worked out from the molar mass of the structure shown.

What was measured:
rat LHRH receptor = biological target: T1, rat LHRH receptor (Rattus norvegicus, UniProt P30969); assay: LHRH receptor-ligand binding assay (transfected LTK cells); details: LTK cells transfected with rat LHRH receptor, 125I-triptorelin tracer, 37° C., 60 min; read-out: Binding to r-LHRHR EC50
T1 construct: expressed in transfected cells; host or cells: LTK cells (mouse fibroblasts, ATCC CCL-1.3)
T1 sequence (P30969 1-327): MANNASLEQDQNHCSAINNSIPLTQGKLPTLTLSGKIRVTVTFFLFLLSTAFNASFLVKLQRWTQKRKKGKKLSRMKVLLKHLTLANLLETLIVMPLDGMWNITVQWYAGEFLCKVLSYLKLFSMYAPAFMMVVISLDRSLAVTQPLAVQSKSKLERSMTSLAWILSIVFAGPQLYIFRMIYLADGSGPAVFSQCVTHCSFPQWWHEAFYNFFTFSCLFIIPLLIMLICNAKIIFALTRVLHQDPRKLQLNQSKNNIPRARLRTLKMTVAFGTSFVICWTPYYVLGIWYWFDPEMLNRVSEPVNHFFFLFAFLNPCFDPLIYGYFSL
Procedure: ^125I-Triptorelin [^125I-(D)-Trp6-GnRH] was purchased from Biotrend (Cologne, Germany).
The specific activity was in each case 2.13 Ci/mmol.
LTK cells (mouse fibroblasts: ATCC No. CCL-1.3) which have been transfected with the rat LHRH receptor are cultivated in DMEM medium (Invitrogen Life Technologies, Germany) with penicillin (100 I.U./ml), streptomycin (0.1 mg/ml) and glutamine (0.01 mol/l) and 10% fetal calf serum (FCS; Invitrogen Life Technologies, Germany) on plastic tissue culture plates (Nunc, Germany, 245×245-20 mm).
80% confluent cell culture plates are washed twice with 50 ml of phosphate-buffered saline (PBS) and then detached with 0.01 M EDTA solution. The cells are pelleted by centrifugation at 200·g for 5 min in a laboratory centrifuge (Kendro, Germany). The cell pellet is resuspended in 3 ml of binding medium (DMEM; 10 mM Hepes; 0.5% BSA; 0.1% […]; 1 g/l bacitracin (add fresh, stock 100×); 0.1 g/l SBTI (add fresh, stock 1000×) and the cell count is determined by Trypan blue staining in a Neubauer counting chamber. The cell suspension is adjusted with binding medium to a concentration of 5×10^5 cells/0.05 ml.
Binding studies for competition plots are carried out as duplicates. The test substances are employed as 10 mM DMSO solutions. They are diluted to 4 times the final concentration employed with binding medium. 25 μl of the substance dilution are mixed with 25 μl of tracer solution (^125I-triptorelin or ^125I-cetrorelix). The tracer concentration is adjusted to approx. 50 000 cpm (measured in a Cobra II, γ counter. PE Liefe Science, Germany) in the final reaction volume of 100 μl.
200 μl of silicone/liquid paraffin mixture (84%:16%) are introduced into 650 μl conical tubes (Roth. Germany). 50 μl of the cell suspension are pipetted thereon, followed by 50 μl of the test substance/tracer mixture. The tubes are capped and incubated with vertical rotation in an incubator at 37° C. for 60 min. After incubation, the samples are centrifuged in a centrifuge (Kendro, Germany) at 900 rpm and subsequently shock-frozen in liquid N2. The tip with the cell pellet is cut off and transferred into prepared counting vials (Roth, Germany). The remainder of the conical tube with the remaining supernatant is likewise transferred into a counting vial. The measurement takes place in a γ counter for 1 min/sample.
Evaluation of the samples takes place after calculation of the specific binding compared with untreated cells, after subtraction of the nonspecific binding (excess of unlabeled ligand, 1 μM) by means of GraphPad Prism or alternatively by means of OMMM software.

[1] = Saturation solubility in water; format: physicochemical; details: water, thermodynamic from solid; maximum of 1% DMSO added, HPLC UV
Procedure: The saturation solubility in water was determined in accordance with the following description: to initiate dissolving of the substances and to improve the wetting of the samples, a maximum of 1% DMSO was added. The content was checked by using an HPLC UV method.

- EC50 (rat LHRH receptor): 7.9 nM
- solubility [1]: 54.6 µg/mL (≈ 80.9 µM)
Compound: CCC(C)[C@H](NC(=O)OCc1ccccc1)C(=O)N[C@]1(C(=O)N[C@H](C(N)=S)C(C)CC)CCc2[nH]c3c(Cl)cc(Cl)cc3c2C1 (stereo partly drawn) [Compound 7, benzyl {(S)-1-[(R)-6,8-dichloro-3-((S)-2-methyl-1-thiocarbamoylbutylcarbamoyl)-2,3,4,9-tetrahydro-1H-carbazol-3-ylcarbamoyl]-2-methylbutyl}carbamate]
